Test results published in patent publication US20240301499A1, “METHOD FOR IDENTIFYING HARD-TO-TREAT OSTEOSARCOMA PATIENTS AT DIAGNOSIS AND IMPROVING THEIR OUTCOME BY PROVIDING NEW THERAPY” (Institut Gustave Roussy, priority 2021, published 2024).
Like-named read-outs stand apart in the source and are kept apart here.

Key:
[1] = test system: 7 human osteosarcoma lines; experiment: MTS cell proliferation assay, 48 and 72 h (first Example 2); assay type: cell-based; details: MTS test
Description: HOS, 143B, MG-63, U2OS and IOR/OS18 cell lines were seeded at 5,000 cells per well, Saos-2, Saos-2-B and IOR/OS14 cell lines were seeded at 10,000 cells per well in a 96-well plate containing a final volume of 100 μl/well and left to settle overnight in DMEM with 10% fetal calf serum.
The cells were treated with different drugs (PPARγ agonists troglitazone (TGZ) or rosiglitazone (RGZ), or PPARγ antagonist T0070907, dissolved in DMSO) at concentrations ranging from 0 μmol/l to 100 μmol/L. The control (untreated cells) get the same volume of DMSO when the cells are treated (10 μl per 1 ml). Cell viability was determined 48 and 72 hours after exposure. Old medium was removed and a solution with MTS/new medium (20 μl of MTS solution−final concentration 0.33 mg/ml) (CellTiter 96 Aqueous One Solution Cell Proliferation Assay; Promega Corporation, Charbonnieres, France) was added. A set of wells were prepared only with MTS/new medium for background subtraction at the same time. An incubation from 1 to 7 hours at 37° C. (cell line metabolism dependent) was performed follow by a colorimetric measurement at 490 nm in an automatic plate reader (Elxb808; Fisher Bioblock Scientific SAS, Illkirch, France).

[2] = test system: 8 osteosarcoma parental cell lines; experiment: In vitro cell viability (MTS assay), 72 h; assay type: cell-based, human
Description: (§1) Parental HOS, 143B, MG-63, IOR/OS18, resistant derived HOS R/MTX and derived PPARγ shRNA or overexpressing PPARγ cell lines were seeded at 5000 cells/well, parental, Saos2, Saos-2B, IOR/OS14, resistant derived HOS R/DOXO and derived PPARγshRNA or overexpressing PPARγ lines were seeded at 10,000 cells/well in a 96-well plate in DMEM supplemented with 10% FBS for both assays.
(§2) The day after seeding, cells were incubated in the presence of a range of drug concentrations for 72 h (from 0 to 100 μmol/L for DOXO, MAF; 0 to 500 μmol/L for MTX, T0070907, Rosiglitazone (RGZ) and Troglitazone (TGZ)). Cell viability was evaluated using the CellTiter 96 Aqueous One Solution Cell Proliferation Assay (MTS assay) (Promega, Charbonnieres, France), according to the manufacturer instructions. The half-maximal inhibitory concentration (IC50) was determined using the GraphPad Prism5 software (Graphpad Software Inc., California, USA).

HOS cells [3] = experiment: In vitro cell viability (MTS assay), HOS; assay type: cell-based, human
Description: as §1, §2

HOS cells [4] = experiment: RNA sequencing of treated HOS cells; assay type: cell-based, human; details: T0070907 at 25 μM for 24 h
MAP-217 PT PDX model = experiment: Osteosarcoma orthotopic (paratibial) PDX model MAP-217; assay type: in vivo, NSG mice; details: IP 10 mg/kg/injection daily
Text: Experiments were validated by the CEEA26, Ethic committee (approval number APAFIS #27183-2020091414229028 v3) and carried out under conditions established by the European Community (Directive 2010/63/UE). Animals were purchased at Gustave Roussy (Villejuif, France) and maintained in the respective animal facilities following standard animal regulation, health and care, and ethical controls. Osteosarcoma PDXs were established from relapsed patients by transplantation in immunocompromised NSG mice and considered as established when tumor growth was sustained after at least two in vivo passages. […] Clinical status, tumor uptake and tumor growth will be evaluated one to 3 times a week. Paratibial tumor was detected by palpation and tumor gross appearance (caliper measurements). […] Mice were then anesthetized and bone structure alterations were analyzed by CTscan imaging. […]
Groups of 8 animals bearing the same OTS orthotopic PDX model were treated from day 14 after tumor implantation with intraperitoneal (IP) injection (volume of 10 m/kg) every day with either T0070907 (10 mg/Kg/injection) or with vehicle (saline, control group). […] Clinical status, tumor uptake and tumor growth were evaluated each two days. Paratibial tumors were detected by palpation, tumor gross apparition (caliper measurements). […]

SMILES: O=C(Nc1ccncc1)c1cc([N+](=O)[O-])ccc1Cl [T0070907]
- IC50 ([1]; read-out: IC50 (cell viability), range over cell lines): 9 to 18 µM
- IC50 ([1]; read-out: median IC50 (cell viability)): 20 µM
- IC50 ([2]; 8 osteosarcoma parental cell lines, read-out: IC50, range over cell lines): 9.3 to 37.4 µM
- IC50 ([2]; all 8 osteosarcoma parental cell lines, read-out: Median IC50): 20 µM
- IC50 (HOS cells [3]): 25 µM
- RNA sequencing: transcription programs induced (HOS cells [4]): induction of pro-apoptotic and osteoblastic differentiation programs
- delay to reach 2.5 time the initial leg volume, higher compared to control (MAP-217 PT PDX model): 20%
- lung metastases (MAP-217 PT PDX model; IHC human Ki67 at sacrifice): decreased lung metastases in number and size
